Assays:
Type in all cases: in vivo
[1] = test system: Ipomoea purpurea; assay: Post-emergence herbicidal effect; details: 320 g/ha, assessed visually after about 3 weeks vs untreated controls
Description: (§1) • ABUTH: Abutilon theophrasti ALOMY: Alopecurus myosuroides • AMARE: Amaranthus retroflexus AVEFA: Avena fatua • CYPES: Cyperus esculentus ECHCG: Echinochloa crus-galli • LOLMU: Lolium multiflorum MATIN: Matricaria inodora • PHBPU: Ipomoea purpurea POLCO: Polygonum convolvulus • SETVI: Setaria viridis STEME: Stellaria media • VERPE: Veronica persica VIOTR: Viola tricolor Seeds of monocotyledonous and dicotyledonous weed and crop plants are laid out in sandy loam in wood-fiber pots, covered with soil and cultivated in a greenhouse under good growth conditions. 2 to 3 weeks after sowing, the test plants are treated at the one-leaf stage. The compounds of the invention, formulated in the form of wettable powders (WP) or as emulsion concentrates (EC), are then sprayed onto the green parts of the plants as aqueous suspension or emulsion at a water application rate equating to 600 to 800 L/ha with addition of 0.2% wetting agent. After the test plants have been left to stand in the greenhouse under optimal growth conditions for about 3 weeks, the action of the preparations is assessed visually in comparison to untreated controls (herbicidal action in percent (%): 100% activity=the plants have died, 0% activity=like control plants).

[2] = test system: Viola tricolor; assay: Post-emergence herbicidal effect; details: assessed visually after about 3 weeks vs untreated controls
Description: as §1

[3] = test system: Matricaria inodora; assay: Pre-emergence herbicidal effect; details: scored visually after 3 weeks
Procedure, shortened: (§2)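 Pre-em soil-surface spray; sandy loam, seeds covered with soil. WP/EC, aq. suspension/emulsion, 600–800 L/ha, +0.2% wetting agent. GH 3 wk; visual % activity vs untreated (100% = dead).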

[4] = test system: Echinochloa crus-galli; assay: Pre-emergence herbicidal effect; details: scored visually after 3 weeks
Procedure, shortened: as §2

[5] = test system: Polygonum convolvulus; assay: Pre-emergence herbicidal effect; details: scored visually after 3 weeks
Procedure, shortened: as §2

[6] = test system: Abutilon theophrasti; assay: Pre-emergence herbicidal effect; details: scored visually after 3 weeks
Procedure, shortened: as §2

[7] = test system: Amaranthus retroflexus; assay: Pre-emergence herbicidal effect; details: scored visually after 3 weeks
Procedure, shortened: as §2

[8] = test system: Viola tricolor; assay: Pre-emergence herbicidal effect; details: scored visually after 3 weeks
Procedure, shortened: as §2

[9] = test system: Veronica persica; assay: Pre-emergence herbicidal effect; details: scored visually after 3 weeks
Procedure, shortened: as §2

[10] = test system: Setaria viridis; assay: Pre-emergence herbicidal effect; details: scored visually after 3 weeks
Procedure, shortened: as §2

[11] = test system: Stellaria media; assay: Pre-emergence herbicidal effect; details: scored visually after 3 weeks
Procedure, shortened: as §2

[12] = test system: Matricaria inodora; assay: Post-emergence herbicidal effect; details: assessed visually after about 3 weeks vs untreated controls
Description: as §1

[13] = test system: Abutilon theophrasti; assay: Post-emergence herbicidal effect; details: assessed visually after about 3 weeks vs untreated controls
Description: as §1

[14] = test system: Amaranthus retroflexus; assay: Post-emergence herbicidal effect; details: assessed visually after about 3 weeks vs untreated controls
Description: as §1

[15] = test system: Veronica persica; assay: Post-emergence herbicidal effect; details: 320 g/ha, assessed visually after about 3 weeks vs untreated controls
Description: as §1

[16] = test system: Setaria viridis; assay: Post-emergence herbicidal effect; details: 320 g/ha, assessed visually after about 3 weeks vs untreated controls
Description: as §1

[17] = test system: Alopecurus myosuroides; assay: Pre-emergence herbicidal effect; details: Dosage 320 g/ha, scored visually after 3 weeks
Procedure, shortened: as §2

[18] = test system: Lolium multiflorum; assay: Pre-emergence herbicidal effect; details: Dosage 320 g/ha, scored visually after 3 weeks
Procedure, shortened: as §2

[19] = test system: Echinochloa crus-galli; assay: Post-emergence herbicidal effect; details: 320 g/ha, assessed visually after about 3 weeks vs untreated controls
Description: as §1

[20] = test system: Stellaria media; assay: Post-emergence herbicidal effect; details: 320 g/ha, assessed visually after about 3 weeks vs untreated controls
Description: as §1

[21] = test system: Polygonum convolvulus; assay: Post-emergence herbicidal effect; details: 320 g/ha, assessed visually after about 3 weeks vs untreated controls
Description: as §1

| Compound | post-emergence efficacy VIOTR ([2]; 80 g/ha) | post-emergence efficacy VIOTR ([2]; 320 g/ha) | MATIN pre-emergence efficacy (herbicidal activity) ([3]; Dosage 80 g/ha) | MATIN pre-emergence efficacy (herbicidal activity) ([3]; Dosage 320 g/ha) | ECHCG pre-emergence efficacy (herbicidal activity) ([4]; Dosage 80 g/ha) | ECHCG pre-emergence efficacy (herbicidal activity) ([4]; Dosage 320 g/ha) | POLCO pre-emergence efficacy (herbicidal activity) ([5]; Dosage 80 g/ha) | POLCO pre-emergence efficacy (herbicidal activity) ([5]; Dosage 320 g/ha) | ABUTH pre-emergence efficacy (herbicidal activity) ([6]; Dosage 320 g/ha) | AMARE pre-emergence efficacy (herbicidal activity) ([7]; Dosage 320 g/ha) | VIOTR pre-emergence efficacy (herbicidal activity) ([8]; Dosage 80 g/ha) | VIOTR pre-emergence efficacy (herbicidal activity) ([8]; Dosage 320 g/ha) | VERPE pre-emergence efficacy (herbicidal activity) ([9]; Dosage 320 g/ha) | SETVI pre-emergence efficacy (herbicidal activity) ([10]; Dosage 80 g/ha) | SETVI pre-emergence efficacy (herbicidal activity) ([10]; Dosage 320 g/ha) | STEME pre-emergence efficacy (herbicidal activity) ([11]; Dosage 80 g/ha) | STEME pre-emergence efficacy (herbicidal activity) ([11]; Dosage 320 g/ha) | post-emergence efficacy ABUTH ([13]; 320 g/ha) | post-emergence efficacy AMARE ([14]; 320 g/ha) | VERPE pre-emergence efficacy (herbicidal activity) ([9]; Dosage 80 g/ha) | other results |
| --- | --- | --- | --- | --- | --- | --- | --- | --- | --- | --- | --- | --- | --- | --- | --- | --- | --- | --- | --- | --- | --- |
| Cc1cc2c(s1)CCCC2Nc1nc(N)c([S+](C)[O-])c(Cl)n1 (racemic) [compound 39] | 80% | 80% | 100% | 100% | 80% | 100% | 80% | 90% | 80% | 100% | 100% | 100% | 100% | 100% | 100% | 100% | 100% |  |  |  | post-emergence efficacy PHBPU [1]: 80% |
| Cc1cc2c(s1)CCCC2Nc1ncc(-c2cncc(C(F)(F)F)c2)c(N)n1 (racemic) [compound 290] | 60% | 90% | 90% | 100% |  | 100% | 50% | 80% |  | 100% | 100% | 100% | 100% | 60% | 100% | 100% | 100% | 60% | 80% | 100% | post-emergence efficacy MATIN ([12]; 80 g/ha): 80%; post-emergence efficacy MATIN ([12]; 320 g/ha): 90%; post-emergence efficacy ABUTH ([13]; 80 g/ha): 60%; post-emergence efficacy AMARE ([14]; 80 g/ha): 80%; post-emergence efficacy VERPE [15]: 100%; post-emergence efficacy SETVI [16]: 60%; ALOMY pre-emergence efficacy (herbicidal activity) [17]: 80%; LOLMU pre-emergence efficacy (herbicidal activity) [18]: 100% |
| Cc1cc2c(s1)CCCC2Nc1nc(N)c(S(C)(=O)=O)c(Cl)n1 (racemic) [compound 16] |  | 90% | 100% | 100% | 100% | 100% | 20% | 40% | 40% | 100% | 100% | 100% | 100% | 20% | 100% | 100% | 100% | 90% | 90% | 100% | post-emergence efficacy ECHCG [19]: 100%; post-emergence efficacy VERPE [15]: 80%; post-emergence efficacy STEME [20]: 90%; ABUTH pre-emergence efficacy (herbicidal activity) ([6]; Dosage 80 g/ha): 40%; AMARE pre-emergence efficacy (herbicidal activity) ([7]; Dosage 80 g/ha): 90% |
| CO/N=C(/C)c1cnc(NC2CCCc3sccc32)nc1N (racemic) [compound 292] |  | 80% | 80% | 100% |  | 100% | 70% |  |  | 100% | 100% | 100% | 100% |  | 100% | 100% | 100% | 80% | 80% | 100% | post-emergence efficacy POLCO [21]: 30%; post-emergence efficacy STEME [20]: 90%; ALOMY pre-emergence efficacy (herbicidal activity) [17]: 100%; LOLMU pre-emergence efficacy (herbicidal activity) [18]: 70% |

— patent publication US10251395B2, “Substituted furano-/thienocycloalkylamino-2-pyrimidine derivatives and use thereof for controlling undesired plant growth” (Bayer CropScience Aktiengesellschaft, priority 2015, dated 2019)
